Reference: patent US8633196B2, “Benzenesulfonamide compounds, method for synthesizing same, and use thereof in medicine as well as in cosmetics” (Galderma Research & Development, priority 2009, dated 2014)
Like-named read-outs stand apart in the source and are kept apart here.

Legend:
ADAM10 = ADAM10 (Homo sapiens (Human), UniProt O14672); assay: Selectivity assay, ADAM10
TACE enzyme [1] = target: T1, TACE enzyme (Homo sapiens (Human), UniProt P78536); assay: Enzymatic assay for TACE inhibition (fluorescent substrate); assay type: biochemical
Target sequence in this assay (P78536 215-824 limits assumed): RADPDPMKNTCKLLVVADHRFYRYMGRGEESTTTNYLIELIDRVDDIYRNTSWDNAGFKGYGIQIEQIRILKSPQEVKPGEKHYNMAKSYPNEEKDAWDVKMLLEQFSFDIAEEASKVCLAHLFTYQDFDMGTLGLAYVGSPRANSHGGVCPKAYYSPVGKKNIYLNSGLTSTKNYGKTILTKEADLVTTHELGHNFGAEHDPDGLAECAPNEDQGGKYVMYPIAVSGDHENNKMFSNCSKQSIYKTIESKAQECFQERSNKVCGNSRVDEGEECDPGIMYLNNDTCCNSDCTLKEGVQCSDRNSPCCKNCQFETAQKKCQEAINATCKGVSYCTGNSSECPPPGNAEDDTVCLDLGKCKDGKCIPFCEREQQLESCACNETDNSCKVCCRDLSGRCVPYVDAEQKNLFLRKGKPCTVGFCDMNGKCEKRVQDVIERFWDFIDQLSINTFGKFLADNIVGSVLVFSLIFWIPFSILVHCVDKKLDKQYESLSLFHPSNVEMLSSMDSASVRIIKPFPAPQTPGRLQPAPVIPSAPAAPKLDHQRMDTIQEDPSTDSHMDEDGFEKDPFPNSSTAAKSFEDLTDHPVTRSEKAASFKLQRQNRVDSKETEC

TACE enzyme [2] = target: T1, TACE enzyme; conditions: WO 00/44709; page 251, table 10, example 61; cited from earlier work
Target sequence in this assay (P78536 whole entry, looked up): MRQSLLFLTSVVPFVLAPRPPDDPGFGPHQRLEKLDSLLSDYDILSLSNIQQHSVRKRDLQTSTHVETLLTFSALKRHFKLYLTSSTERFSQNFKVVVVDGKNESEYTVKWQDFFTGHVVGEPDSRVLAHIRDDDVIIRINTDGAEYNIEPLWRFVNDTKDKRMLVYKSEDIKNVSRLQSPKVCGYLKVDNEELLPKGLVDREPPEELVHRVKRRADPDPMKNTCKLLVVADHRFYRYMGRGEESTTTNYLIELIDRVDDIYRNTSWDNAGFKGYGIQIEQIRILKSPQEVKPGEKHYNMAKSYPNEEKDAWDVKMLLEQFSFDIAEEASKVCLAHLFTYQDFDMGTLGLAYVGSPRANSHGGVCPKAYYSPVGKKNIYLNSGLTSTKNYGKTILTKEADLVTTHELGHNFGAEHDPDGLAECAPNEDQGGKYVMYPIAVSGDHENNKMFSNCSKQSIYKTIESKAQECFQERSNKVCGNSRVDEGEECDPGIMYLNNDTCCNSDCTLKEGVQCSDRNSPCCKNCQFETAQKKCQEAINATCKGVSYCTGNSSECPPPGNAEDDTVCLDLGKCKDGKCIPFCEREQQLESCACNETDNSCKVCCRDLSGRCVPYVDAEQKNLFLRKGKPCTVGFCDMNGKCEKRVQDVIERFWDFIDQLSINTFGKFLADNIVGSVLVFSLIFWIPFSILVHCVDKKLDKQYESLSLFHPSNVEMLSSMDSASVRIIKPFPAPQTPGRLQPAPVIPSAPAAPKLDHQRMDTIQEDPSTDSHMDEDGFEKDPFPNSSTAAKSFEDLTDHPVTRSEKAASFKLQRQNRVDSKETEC

MMP1 = MMP1 (Homo sapiens (Human), UniProt P03956); assay: Selectivity assay, MMP1; assay type: biochemical
Sequence of MMP1 (P03956 100-469, species assumed): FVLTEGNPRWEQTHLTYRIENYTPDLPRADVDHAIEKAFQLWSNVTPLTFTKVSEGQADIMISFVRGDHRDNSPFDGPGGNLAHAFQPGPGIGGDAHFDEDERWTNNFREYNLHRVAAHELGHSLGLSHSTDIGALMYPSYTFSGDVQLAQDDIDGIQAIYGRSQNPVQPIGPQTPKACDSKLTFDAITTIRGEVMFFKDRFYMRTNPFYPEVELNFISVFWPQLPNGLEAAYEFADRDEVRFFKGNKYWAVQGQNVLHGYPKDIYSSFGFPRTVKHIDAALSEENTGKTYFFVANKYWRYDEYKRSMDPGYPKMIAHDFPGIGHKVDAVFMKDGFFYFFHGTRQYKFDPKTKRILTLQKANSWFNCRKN

MMP9 = MMP9 (Homo sapiens (Human), UniProt P14780); assay: Selectivity assay, MMP9; assay type: biochemical
Sequence of MMP9 (P14780 94-707, species assumed): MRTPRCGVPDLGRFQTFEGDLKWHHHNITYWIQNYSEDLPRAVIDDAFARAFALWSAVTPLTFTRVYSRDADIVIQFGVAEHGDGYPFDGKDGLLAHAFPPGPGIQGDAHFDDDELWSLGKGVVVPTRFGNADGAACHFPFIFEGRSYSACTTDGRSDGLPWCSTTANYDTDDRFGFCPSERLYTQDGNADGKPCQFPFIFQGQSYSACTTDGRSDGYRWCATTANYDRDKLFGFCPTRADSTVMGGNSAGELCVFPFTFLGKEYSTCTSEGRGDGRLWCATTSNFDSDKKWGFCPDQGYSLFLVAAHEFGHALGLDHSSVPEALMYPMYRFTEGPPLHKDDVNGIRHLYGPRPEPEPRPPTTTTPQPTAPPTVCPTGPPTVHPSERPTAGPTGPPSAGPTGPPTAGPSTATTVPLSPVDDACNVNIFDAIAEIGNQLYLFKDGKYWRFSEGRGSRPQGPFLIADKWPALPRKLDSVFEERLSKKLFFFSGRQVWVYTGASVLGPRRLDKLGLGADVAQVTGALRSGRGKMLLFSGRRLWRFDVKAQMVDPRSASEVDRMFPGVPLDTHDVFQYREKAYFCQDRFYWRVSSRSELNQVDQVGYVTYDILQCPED

MMP3 = MMP3 (Homo sapiens (Human), UniProt P08254); assay: Selectivity assay, MMP3; assay type: biochemical
Sequence of MMP3 (P08254 100-477, species assumed): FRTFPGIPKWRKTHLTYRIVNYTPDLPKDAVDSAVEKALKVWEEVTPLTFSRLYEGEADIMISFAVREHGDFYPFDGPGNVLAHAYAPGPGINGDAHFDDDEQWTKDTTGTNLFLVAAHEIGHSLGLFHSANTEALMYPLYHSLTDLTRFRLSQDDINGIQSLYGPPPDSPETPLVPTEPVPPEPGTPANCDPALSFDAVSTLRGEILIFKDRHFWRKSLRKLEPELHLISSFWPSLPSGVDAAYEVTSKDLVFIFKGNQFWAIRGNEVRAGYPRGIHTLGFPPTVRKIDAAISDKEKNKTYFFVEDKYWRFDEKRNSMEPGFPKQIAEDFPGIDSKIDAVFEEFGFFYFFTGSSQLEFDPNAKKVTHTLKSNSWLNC

ADAM9 = ADAM9 (Homo sapiens (Human), UniProt Q13443); assay: Selectivity assay, ADAM9; assay type: biochemical
Sequence of ADAM9 (Q13443 29-819, species assumed): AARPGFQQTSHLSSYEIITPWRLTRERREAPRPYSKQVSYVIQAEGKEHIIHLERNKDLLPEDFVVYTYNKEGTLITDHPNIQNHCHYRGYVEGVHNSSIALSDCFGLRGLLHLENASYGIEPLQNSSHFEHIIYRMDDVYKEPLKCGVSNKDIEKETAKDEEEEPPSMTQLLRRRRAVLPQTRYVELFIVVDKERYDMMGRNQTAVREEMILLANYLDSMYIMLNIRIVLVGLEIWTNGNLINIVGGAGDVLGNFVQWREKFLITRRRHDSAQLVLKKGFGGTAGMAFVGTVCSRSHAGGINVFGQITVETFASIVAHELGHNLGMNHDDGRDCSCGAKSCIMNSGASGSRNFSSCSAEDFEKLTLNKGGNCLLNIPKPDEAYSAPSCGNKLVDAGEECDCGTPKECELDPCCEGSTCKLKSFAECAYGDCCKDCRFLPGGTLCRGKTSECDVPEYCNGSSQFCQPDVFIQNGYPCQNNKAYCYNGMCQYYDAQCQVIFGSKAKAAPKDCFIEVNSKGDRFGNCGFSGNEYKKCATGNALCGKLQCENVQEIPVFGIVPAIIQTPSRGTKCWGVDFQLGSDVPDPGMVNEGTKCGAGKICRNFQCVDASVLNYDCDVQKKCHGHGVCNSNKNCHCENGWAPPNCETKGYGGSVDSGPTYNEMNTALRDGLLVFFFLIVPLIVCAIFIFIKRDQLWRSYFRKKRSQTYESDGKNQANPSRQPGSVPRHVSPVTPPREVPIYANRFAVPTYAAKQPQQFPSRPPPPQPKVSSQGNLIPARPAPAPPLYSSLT

[3] = enzymatic assay, substrate 40 μM, read-out: IC50-TACE
[4] = TACE column of selectivity table, read-out: IC50 (nM) TACE

Sequence of ADAM10 (O14672 214-748, species assumed): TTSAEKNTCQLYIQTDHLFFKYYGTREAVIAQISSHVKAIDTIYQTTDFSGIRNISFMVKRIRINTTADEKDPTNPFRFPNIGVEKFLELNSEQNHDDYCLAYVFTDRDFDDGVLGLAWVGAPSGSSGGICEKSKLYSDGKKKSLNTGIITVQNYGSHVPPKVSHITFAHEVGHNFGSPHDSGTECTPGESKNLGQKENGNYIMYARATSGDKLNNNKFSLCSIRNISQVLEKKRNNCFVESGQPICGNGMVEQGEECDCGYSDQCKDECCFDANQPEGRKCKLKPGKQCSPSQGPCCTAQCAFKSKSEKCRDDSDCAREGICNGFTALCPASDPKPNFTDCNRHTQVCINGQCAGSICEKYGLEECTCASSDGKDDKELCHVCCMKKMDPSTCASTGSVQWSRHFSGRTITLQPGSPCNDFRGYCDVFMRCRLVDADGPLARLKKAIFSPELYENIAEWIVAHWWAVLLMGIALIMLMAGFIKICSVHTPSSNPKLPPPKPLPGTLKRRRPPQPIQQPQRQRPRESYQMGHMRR

Row | Structure (SMILES) | IC50 (MMP1) [nM] | IC50 (MMP3) [nM] | % TACE inhibition at 10 μM (TACE enzyme [1]) [%] | IC50 (TACE enzyme [1]; [3]) [nM] | IC50 (TACE enzyme [1]; [4]) [nM] | further results
1 | CC1(C)SCCN(S(=O)(=O)c2ccc(OCC#CCO)cc2)[C@H]1C(=O)NO [Apratastat, reference compound] | 145 | 10 |  |  |  | IC50 (ADAM10): 71 nM; IC50 (TACE enzyme [1]; read-out: IC50 (nM) TACE, TACE column of selectivity table): 5 nM; selectivity for the TACE enzyme compared with certain MMPs (TACE enzyme [2]): not selective; IC50 (MMP9): 82 nM; IC50 (ADAM9): 85 nM
2 | CC#CCOc1ccc(S(=O)(=O)NC[C@@H](C(=O)NO)N2CCN(S(C)(=O)=O)CC2)cc1 [Example 2, (S)-3-(4-but-2-ynyloxybenzenesulfonylamino)-N-hydroxy-2-(4-methanesulfonylpiperazin-1-yl)propionamide] |  |  | 100 | 32 |  | 
3 | Cc1cc(COc2ccc(S(=O)(=O)NC[C@@H](C(=O)NO)N3CCN(S(C)(=O)=O)CC3)cc2)c2ccccc2n1 [Example 5, (S)-N-Hydroxy-2-(4-methanesulfonylpiperazin-1-yl)-3-[4-(2-methylquinolin-4-ylmethoxy)benzenesulfonylamino]propionamide] | 5100 | 3200 | 99 | 21 | 21 | 
4 | CS(=O)(=O)N1CCN([C@@H](CNS(=O)(=O)c2ccc(OCc3cccc4ccccc34)cc2)C(=O)NO)CC1 [Example 6, (S)-N-Hydroxy-2-(4-methanesulfonylpiperazin-1-yl)-3-[4-(naphthalen-1-ylmethoxy)benzenesulfonylamino]propionamide] |  |  | 99 | 52 |  | 
5 | CS(=O)(=O)N1CCN([C@@H](CNS(=O)(=O)c2ccc(OCc3cccc(C#N)c3)cc2)C(=O)NO)CC1 [Example 8, (S)-3-[4-(3-Cyanobenzyloxy)benzenesulfonylamino]-N-hydroxy-2-(4-methanesulfonylpiperazin-1-yl)propionamide] |  |  | 100 | 127 |  | 
6 | CS(=O)(=O)N1CCN([C@@H](CNS(=O)(=O)c2ccc(OCc3ccc(C#N)cc3)cc2)C(=O)NO)CC1 [Example 9, (S)-3-[4-(4-Cyanobenzyloxy)benzenesulfonylamino]-N-hydroxy-2-(4-methanesulfonylpiperazin-1-yl)propionamide] |  |  | 100 | 147 |  | 
7 | Cc1cc(COc2ccc(S(=O)(=O)NC[C@@H](C(=O)NO)N3CCN(C(=O)OCc4ccccc4)CC3)cc2)c2ccccc2n1 [Example 10, Benzyl 4-{(S)-1-hydroxycarbamoyl-2-[4-(2-methylquinolin-4-ylmethoxy)benzenesulfonylamino]ethyl}piperazine-1-carboxylate] |  |  | 93 |  |  | 
8 | CS(=O)(=O)N1CCN([C@@H](CNS(=O)(=O)c2ccc(OCc3ccnc(-c4ccccc4)c3)cc2)C(=O)NO)CC1 [Example 11, (S)-N-Hydroxy-2-(4-methanesulfonylpiperazin-1-yl)-3-[4-(2-phenylpyridin-4-ylmethoxy)benzenesulfonylamino]propionamide] |  |  | 93 | 24 |  | 
9 | Cc1cc(COc2ccc(S(=O)(=O)NC[C@@H](C(=O)NO)N3CCNCC3)cc2)c2ccccc2n1 [Example 13, (S)-N-Hydroxy-3-[4-(2-methylquinolin-4-ylmethoxy)benzenesulfonylamino]-2-piperazin-1-ylpropionamide] |  |  | 96 | 108 |  | 
10 | Cc1cc(COc2ccc(S(=O)(=O)NC[C@@H](C(=O)NO)N3CCN(S(C)(=O)=O)CC3)cc2)c2ccccc2n1.Cl [Example 14, (S)-N-Hydroxy-2-(4-methanesulfonylpiperazin-1-yl)-3-[4-(2-methylquinolin-4-ylmethoxy)benzenesulfonylamino]propionamide hydrochloride] |  |  | 98 |  |  | IC50 (TACE enzyme [1]; read-out: IC50-TACE, enzymatic assay, substrate 40 μM, listed as ex14, hydrochloride): 64 nM
11 | CS(=O)(=O)N1CCN([C@@H](CNS(=O)(=O)c2ccc(OCc3ccnc4ccccc34)cc2)C(=O)NO)CC1 [Example 16, (S)-N-Hydroxy-2-(4-methanesulfonylpiperazin-1-yl)-3-[4-(quinolin-4-ylmethoxy)benzenesulfonylamino]propionamide] |  |  | 96 | 168 |  | 
12 | Cc1cc(COc2ccc(S(=O)(=O)NC[C@@H](C(=O)NO)N3CCN(Cc4ccccc4)CC3)cc2)c2ccccc2n1 [Example 17, (S)-2-(4-Benzylpiperazin-1-yl)-N-hydroxy-3-[4-(2-methylquinolin-4-ylmethoxy)benzenesulfonylamino]propionamide] |  |  | 91 | 62 |  | 
13 | Cc1cc(COc2ccc(S(=O)(=O)NC[C@@H](C(=O)NO)N3CCN(Cc4ccc(F)cc4)CC3)cc2)c2ccccc2n1 [Example 18, (S)-2-[4-(4-Fluorobenzyl)piperazin-1-yl]-N-hydroxy-3-[4-(2-methylquinolin-4-ylmethoxy)benzenesulfonylamino]propionamide] | 670 | 849 | 90 | 67 | 67 | IC50 (ADAM10): > 10000 nM; IC50 (MMP9): > 10000 nM; IC50 (ADAM9): 9250 nM
14 | CCN1CCN([C@@H](CNS(=O)(=O)c2ccc(OCc3cc(C)nc4ccccc34)cc2)C(=O)NO)CC1 [Example 19, (S)-2-(4-ethyl-piperazin-1-yl)-N-hydroxy-3-[4-(2-methylquinolin-4-yl-methoxy)benzenesulfonylamino]propionamide] | 2300 | 1770 | 92 | 41 | 41 | IC50 (ADAM10): > 10000 nM; IC50 (MMP9): > 10000 nM; IC50 (ADAM9): 3050 nM
15 | Cc1cc(COc2ccc(S(=O)(=O)NC[C@@H](C(=O)NO)N3CCN(Cc4ccc(C(F)(F)F)cc4)CC3)cc2)c2ccccc2n1 [Example 20, (S)-N-Hydroxy-3-[4-(2-methylquinolin-4-ylmethoxy)benzenesulfonylamino]-2-[4-(4-trifluoromethylbenzyl)piperazin-1-yl]propionamide] | 3940 | 4780 |  |  |  | IC50 (ADAM10): > 10000 nM; IC50 (MMP9): > 10000 nM; IC50 (ADAM9): > 10000 nM
16 | Cc1ccc(CN2CCN([C@@H](CNS(=O)(=O)c3ccc(OCc4cc(C)nc5ccccc45)cc3)C(=O)NO)CC2)cc1 [Example 21, (S)-N-hydroxy-2-[4-(4-methylbenzyl)piperazin-1-yl]-3-[4-(2-methylquinolin-4-ylmethoxy)benzenesulfonylamino]propionamide] | 1170 | 887 | 97 | 63 | 63 | 
17 | Cc1cc(COc2ccc(S(=O)(=O)NC[C@@H](C(=O)NO)N3CCN(C(=O)C(C)C)CC3)cc2)c2ccccc2n1 [Example 23, (S)-N-hydroxy-2-(4-isobutyrylpiperazin-1-yl)-3-[4-(2-methylquinolin-4-ylmethoxy)-benzenesulfonylamino]propionamide] | 2220 | 1060 | 97 | 53 | 53 | 
18 | Cc1cc(COc2ccc(S(=O)(=O)NC[C@@H](C(=O)NO)N3CCN(S(=O)(=O)CC(C)C)CC3)cc2)c2ccccc2n1 [Example 24, (S)-N-hydroxy-2-[4-(2-methylpropane-1-sulfonyl)piperazin-1-yl]-3-[4-(2-methylquinolin-4-ylmethoxy)benzenesulfonylamino]propionamide] | 2060 | 1880 |  |  |  | 
19 | Cc1cc(COc2ccc(S(=O)(=O)NC[C@@H](C(=O)NO)N3CCN(S(=O)(=O)C(C)C)CC3)cc2)c2ccccc2n1 [Example 26, (S)-N-hydroxy-3-[4-(2-methylquinolin-4-ylmethoxy)benzenesulfonylamino]-2-[4-(propane-2-sulfonyl)piperazin-1-yl]propionamide] | 969 | 574 | 98 | 33 | 16 | 
